Assay results from patent US20240174618A1, “SUBSTITUTED (2-HETEROARYLOXYPHENYL)SULFONATES, SALTS THEREOF AND THEIR USE AS HERBICIDAL AGENTS” (Bayer Aktiengesellschaft, priority 2021, published 2024).

What was measured:
Format in all cases: in vivo
[1] = tested on: Digitaria sanguinalis (DIGSA); assay: B. Herbicidal post-emergence efficacy, DIGSA; conditions: rated visually after about 3 weeks
Description: (§1) Seeds of mono- and dicotyledonous weed plants were placed in plastic pots in sandy loam soil (doubly sown with in each case one species of mono- or dicotyledonous weed plants per pot), covered with soil and cultivated in a greenhouse under controlled growth conditions. 2 to 3 weeks after sowing, the test plants were treated at the one-leaf stage. The compounds of the invention, formulated in the form of wettable powders (WP) or as emulsion concentrates (EC), were applied onto the green parts of the plants as aqueous suspension or emulsion with addition of 0.5% additive at a water application rate of 600 liters per hectare (converted). After the test plants had been kept in the greenhouse under optimum growth conditions for about 3 weeks, the activity of the preparations was rated visually in comparison to untreated controls.
(§2) For example, • 100% efficacy=plants have died, • 0% efficacy=like untreated control plants
(§3) Tables B1a to B12c below show the effects of selected inventive compounds of the general formula (I) according to table 1 on various harmful plants at an application rate corresponding to 1280 g/ha or less, which were obtained by the experimental procedure mentioned above.

[2] = tested on: Amaranthus retroflexus (AMARE); assay: B. Herbicidal post-emergence efficacy, AMARE
Outline: (§4)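 Weeds grown in sandy loam in greenhouse pots, sprayed at one-leaf stage (2–3 weeks after sowing) with WP or EC formulations as aqueous suspension/emulsion plus 0.5% additive at 600 L/ha water, rates up to 1280 g/ha. Visual efficacy rated about 3 weeks later versus untreated controls (0% = like control, 100% = dead).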

[3] = tested on: Digitaria sanguinalis (DIGSA); assay: A. Herbicidal pre-emergence efficacy, DIGSA; conditions: scored visually after about 3 weeks vs untreated controls
Outline: (§5)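 Applied before emergence onto covering soil at rates of 1280 g/ha or less, using 600 L/ha spray water with 0.5% additive. Scoring: visual % efficacy after ~3 weeks, greenhouse.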

[4] = tested on: Poa annua (POAAN); assay: A. Herbicidal pre-emergence efficacy, POAAN
Outline: as §5

[5] = tested on: Kochia scoparia (KCHSC); assay: B. Herbicidal post-emergence efficacy, KCHSC; conditions: for Post-emergence efficacy against KCHSC: 1280 g/ha; for Post-emergence efficacy against KCHSC in %: rated visually after about 3 weeks
Outline: as §4

[6] = tested on: Echinochloa crus-galli (ECHCG); assay: B. Herbicidal post-emergence efficacy, ECHCG; conditions: 1280 g/ha, rated visually after about 3 weeks
Outline: as §4

[7] = tested on: Poa annua (POAAN); assay: B. Herbicidal post-emergence efficacy, POAAN
Outline: as §4

[8] = tested on: Stellaria media (STEME); assay: B. Herbicidal post-emergence efficacy, STEME
Outline: as §4

[9] = tested on: Stellaria media (STEME); assay: A. Herbicidal pre-emergence efficacy, STEME
Outline: as §5

[10] = tested on: Lolium rigidum (LOLRI); assay: A. Herbicidal pre-emergence efficacy, LOLRI
Excerpt: (§6) Seeds of mono- and dicotyledonous weed plants were placed in plastic pots in sandy loam soil (doubly sown with one species each of mono- or dicotyledonous weed plants per pot) and covered with soil. The compounds of the invention, formulated in the form of wettable powders (WP) or as emulsion concentrates (EC), were then applied onto the surface of the covering soil as aqueous suspension or emulsion with addition of 0.5% additive at a water application rate of 600 liters per hectare (converted). After the treatment, the pots were placed in a greenhouse and kept under good growth conditions for the test plants. After about 3 weeks, the efficacy of the preparations was scored visually in comparison with untreated controls as percentages.
(§7) For example, • 100% efficacy=plants have died, • 0% efficacy=like untreated control plants.
(§8) Tables A1a to A12c below show the effects of selected compounds of the general formula (I) according to table 1 on various harmful plants at an application rate corresponding to 1280 g/ha or less, which were obtained by the experimental procedure mentioned above.

[11] = tested on: Matricaria inodora (MATIN); assay: A. Herbicidal pre-emergence efficacy, MATIN
Excerpt: as §6, §7, §8

[12] = tested on: Veronica persica (VERPE); assay: B. Herbicidal post-emergence efficacy, VERPE
Outline: as §4

[13] = tested on: Setaria viridis (SETVI); assay: B. Herbicidal post-emergence efficacy, SETVI; conditions: 1280 g/ha
Description: as §1, §2, §3

[14] = tested on: Veronica persica (VERPE); assay: A. Herbicidal pre-emergence efficacy, VERPE
Outline: as §5

[15] = tested on: Echinochloa crus-galli (ECHCG); assay: A. Herbicidal pre-emergence efficacy, ECHCG; conditions: scored visually after about 3 weeks vs untreated controls
Outline: as §5

[16] = tested on: Amaranthus retroflexus (AMARE); assay: A. Herbicidal pre-emergence efficacy, AMARE
Outline: as §5

[17] = tested on: Abutilon theophrasti (ABUTH); assay: B. Herbicidal post-emergence efficacy, ABUTH; conditions: rated visually after about 3 weeks
Outline: as §4

[18] = tested on: Setaria viridis (SETVI); assay: A. Herbicidal pre-emergence efficacy, SETVI
Outline: as §5

[19] = tested on: Abutilon theophrasti (ABUTH); assay: A. Herbicidal pre-emergence efficacy, ABUTH; conditions: scored visually after about 3 weeks vs untreated controls
Outline: as §5

[20] = tested on: Kochia scoparia (KCHSC); assay: A. Herbicidal pre-emergence efficacy, KCHSC; conditions: pre-emergence
Outline: as §5

[21] = tested on: Alopecurus myosuroides (ALOMY); assay: A. Herbicidal pre-emergence efficacy, ALOMY; conditions: 1280 g/ha; scored visually after about 3 weeks vs untreated controls
Excerpt: as §6, §7, §8

[22] = pre-emergence, dosage 1280 g/ha
[23] = 320 g/ha, scored visually after about 3 weeks vs untreated controls

Structure (SMILES)	Post-emergence efficacy against DIGSA in % ([1]; 1280 g/ha)	Post-emergence efficacy against AMARE ([2]; 1280 g/ha)	Pre-emergence efficacy against DIGSA ([3]; 320 g/ha)	Pre-emergence efficacy against DIGSA ([3]; 1280 g/ha)	Pre-emergence efficacy against POAAN ([4]; dosage 320 g/ha)	Pre-emergence efficacy against POAAN ([4]; dosage 1280 g/ha)	Post-emergence efficacy against KCHSC [5]	Post-emergence efficacy against STEME ([8]; 1280 g/ha)	Pre-emergence efficacy against STEME ([9]; dosage 320 g/ha)	Pre-emergence efficacy against STEME ([9]; dosage 1280 g/ha)	Pre-emergence efficacy against LOLRI ([10]; dosage 1280 g/ha)	Pre-emergence efficacy against MATIN [11, 22]	Pre-emergence efficacy against VERPE in % ([14]; 1280 g/ha)	Pre-emergence efficacy against ECHCG ([15]; 1280 g/ha)	Pre-emergence efficacy against AMARE in % ([16]; 320 g/ha)	Pre-emergence efficacy against AMARE in % ([16]; 1280 g/ha)	Post-emergence efficacy against ABUTH in % ([17]; 1280 g/ha)	Pre-emergence efficacy against SETVI ([18]; dosage 320 g/ha)	Pre-emergence efficacy against SETVI ([18]; dosage 1280 g/ha)	Pre-emergence efficacy against ABUTH ([19]; 1280 g/ha)	other results
Cc1cccc(Oc2ncc(Br)cn2)c1OS(=O)(=O)CCC(F)(F)F [Example I-33]	90%	100%	100%	100%	100%	100%	100%	100%	100%	100%	100%	90%	100%	100%	100%	100%	100%	100%	100%	100%	Post-emergence efficacy against AMARE ([2]; 320 g/ha): 90%; Post-emergence efficacy against ECHCG in % [6]: 100%; Post-emergence efficacy against POAAN ([7]; 320 g/ha): 90%; Post-emergence efficacy against POAAN ([7]; 1280 g/ha): 100%; Post-emergence efficacy against STEME ([8]; 80 g/ha): 90%; Post-emergence efficacy against STEME ([8]; 320 g/ha): 100%; Pre-emergence efficacy against STEME ([9]; dosage 80 g/ha): 100%; Post-emergence efficacy against VERPE ([12]; 80 g/ha): 100%; Post-emergence efficacy against VERPE ([12]; 320 g/ha): 100%; Post-emergence efficacy against VERPE ([12]; 1280 g/ha): 100%; Post-emergence efficacy against SETVI [13]: 100%; Pre-emergence efficacy against VERPE in % ([14]; 320 g/ha): 100%; Pre-emergence efficacy against VERPE ([14]; dosage 80 g/ha): 90%; Pre-emergence efficacy against ECHCG ([15]; 320 g/ha): 100%; Pre-emergence efficacy against AMARE in % ([16]; 80 g/ha): 90%; Post-emergence efficacy against ABUTH in % ([17]; 320 g/ha): 90%; Pre-emergence efficacy against ABUTH ([19]; 320 g/ha): 100%
O=S(=O)(CCCC(F)(F)F)Oc1c(Br)cccc1Oc1ncc(F)cn1 [Example I-44]			100%	100%	100%	100%	100%	100%	100%	100%	100%	100%	100%	100%	100%	100%	100%	100%	100%	100%	Post-emergence efficacy against KCHSC in % ([5]; 80 g/ha): 100%; Post-emergence efficacy against KCHSC in % ([5]; 320 g/ha): 100%; Pre-emergence efficacy against KCHSC ([20]; dosage 320 g/ha): 100%; Pre-emergence efficacy against KCHSC ([20]; dosage 1280 g/ha): 100%; Post-emergence efficacy against ECHCG in % [6]: 100%; Post-emergence efficacy against STEME ([8]; 80 g/ha): 100%; Post-emergence efficacy against STEME ([8]; 320 g/ha): 100%; Pre-emergence efficacy against STEME ([9]; dosage 80 g/ha): 100%; Pre-emergence efficacy against LOLRI ([10]; dosage 320 g/ha): 100%; Pre-emergence efficacy against ALOMY [21]: 100%; Pre-emergence efficacy against MATIN [11, 23]: 90%; Pre-emergence efficacy against VERPE in % ([14]; 320 g/ha): 100%; Pre-emergence efficacy against ECHCG ([15]; 320 g/ha): 100%; Pre-emergence efficacy against AMARE in % ([16]; 80 g/ha): 100%; Post-emergence efficacy against ABUTH in % ([17]; 320 g/ha): 90%
O=S(=O)(CC1CCCO1)Oc1c(F)cccc1Oc1ncc(Cl)cn1 (stereo not shown) [Example I-54]	90%	90%	90%	100%	90%	100%	90%	90%	90%	100%	90%	90%	90%	100%	100%	100%	90%	100%	100%	100%	Pre-emergence efficacy against KCHSC ([20]; dosage 1280 g/ha): 90%; Post-emergence efficacy against ECHCG in % [6]: 90%; Post-emergence efficacy against POAAN ([7]; 1280 g/ha): 90%; Post-emergence efficacy against VERPE ([12]; 80 g/ha): 90%; Post-emergence efficacy against VERPE ([12]; 320 g/ha): 90%; Post-emergence efficacy against VERPE ([12]; 1280 g/ha): 90%; Post-emergence efficacy against SETVI [13]: 90%; Pre-emergence efficacy against ECHCG ([15]; 320 g/ha): 100%; Pre-emergence efficacy against ABUTH ([19]; 320 g/ha): 90%
N#Cc1cc(Cl)cnc1Oc1ccccc1OS(=O)(=O)CCCCl [Example I-59]	90%	90%	100%	100%	100%	100%	90%	90%	100%	100%	90%	100%	100%	100%	100%	100%	90%	100%	100%	90%	Post-emergence efficacy against DIGSA in % ([1]; 320 g/ha): 90%; Post-emergence efficacy against AMARE ([2]; 80 g/ha): 90%; Post-emergence efficacy against AMARE ([2]; 320 g/ha): 90%; Post-emergence efficacy against KCHSC in % ([5]; 320 g/ha): 90%; Pre-emergence efficacy against KCHSC ([20]; dosage 320 g/ha): 100%; Pre-emergence efficacy against KCHSC ([20]; dosage 1280 g/ha): 100%; Post-emergence efficacy against POAAN ([7]; 1280 g/ha): 90%; Post-emergence efficacy against STEME ([8]; 320 g/ha): 90%; Pre-emergence efficacy against STEME ([9]; dosage 80 g/ha): 90%; Pre-emergence efficacy against MATIN [11, 23]: 90%; Post-emergence efficacy against VERPE ([12]; 80 g/ha): 90%; Post-emergence efficacy against VERPE ([12]; 320 g/ha): 90%; Post-emergence efficacy against VERPE ([12]; 1280 g/ha): 90%; Post-emergence efficacy against SETVI [13]: 90%; Pre-emergence efficacy against VERPE in % ([14]; 320 g/ha): 90%; Pre-emergence efficacy against AMARE in % ([16]; 80 g/ha): 100%; Post-emergence efficacy against ABUTH in % ([17]; 320 g/ha): 90%
